Experimental data from patent USRE48461E1, “Modulation of androgen receptor expression” (Ionis Pharmaceuticals, Inc., priority 2012, dated 2021).

Experiments:
Assay type in all cases: cell-based, human
PSA mRNA [1] = assay: PSA expression in C4-2B cells (Example 30); conditions: 48 hrs
Protocol: Cells were plated at 1,000 cells per well. […] ISIS 549148 was included as a negative control. […] After an incubation period of 48 hrs, RNA levels of AR, PSA and TMPRSS2 were measured.
Cells were plated at 2,000 cells per well and cultured in CSS media with 1 nM DHT. […] ISIS 549148 was included as a negative control. […] After an incubation period of 48 hrs, RNA levels of AR, PSA and TMPRSS2 were measured. In the absence of DHT, AR expression in C4-2 cells was 188%, PSA expression was 43% and TMPRSS2 expression was 27% compared to the untreated control.

VCaP cells [2] = assay: VCaP apoptosis (Caspase-Glo 3/7); conditions: VCaP cells, complete medium, 72 hours
Protocol: After a treatment period of 72 hours in complete medium, apoptosis of the cancer cells was measured with Caspase-Glo 3/7 assay (Promega). Results are presented in Tables 117 and 118 as percent apoptosis of the cells, relative to non-treated cells.

AR mRNA = assay: AR RNA expression in C4-2 cells (complete, CSS+DHT medium); conditions: 48 hrs; for Percent expression of AR: C4-2 cells, CSS + DHT medium
Protocol: Cells were plated at 1,000 cells per well. […] After an incubation period of 48 hrs, RNA levels of AR, PSA and TMPRSS2 were measured.
Cells were plated at 2,000 cells per well and cultured in CSS media with 1 nM DHT. […] After an incubation period of 48 hrs, RNA levels of AR, PSA and TMPRSS2 were measured.

VCaP cells [3] = assay: VCaP cell proliferation; conditions: VCaP cells, 5 days
Protocol: After a treatment period of 5 days in complete medium or CSS+1 nM DHT medium, the proliferative capacity of the cancer cells was measured with using CellTiter 96® AQueous One or CellTiter-Glo® Solution Cell Proliferation kit (Promega), following the manufacturer's instructions. […] Treatment with ISIS oligonucleotides in CSS+DHT medium reduced the proliferative capacity to a greater extent than treatment with MVD-3100. The proliferative capacity of cells cultured in CSS medium without DHT is 12% of untreated control levels.

22RV1 cells [4] = assay: 22RV1 cell proliferation with/without DHT (MTT); conditions: RNAiMAX, 5 days
Protocol: 22RV1cells were plated at 1,500 cells per well. […] Separate sets of cells, also treated with each of the antisense oligonucleotides, were treated with DHT added on day 1 at a final concentration of 1 nM. After a treatment period of 5 days, the proliferative ability of the cancer cells was measured using the standard MTT assay. Results are presented in Table 69 as percent inhibition of proliferation, relative to non-treated cells.

22RV1 cells [5] = assay: 22RV1 cell proliferation (Example 32); conditions: 22RV1 cells, complete medium, 5 days
Protocol: After a treatment period of 5 days in complete medium, the proliferative capacity of the cancer cells was measured with using CellTiter 96® AQueous One or CellTiter-Glo® Solution Cell Proliferation kit (Promega), following the manufacturer's instructions. […] Treatment with ISIS oligonucleotides in CSS+DHT medium reduced the proliferative capacity to a greater extent than treatment with MVD-3100. The proliferative capacity of cells cultured in CSS medium without DHT is 12% of untreated control levels.

PSA mRNA [6] = assay: PSA expression in 22RV1 cells; conditions: RNAiMax, 48 hrs
Protocol: Cells were plated at 1,000 cells per well. […] After an incubation period of 48 hrs, RNA levels of full length AR, the V7 variant, PSA and TMPRSS2 were measured.
After an incubation period of 48 hrs, RNA levels of full length AR, the V7 variant, PSA and TMPRSS2 were measured.
Cells were plated at 2,000 cells per well and cultured in CSS media for 16 hours. […] After 4 hrs, 1 nM DHT was added. […] After an incubation period of 48 hrs, RNA levels of AR, AR V7 variant, PSA and TMPRSS2 were measured.

GGCTACTACGCCGTCA (3-10-3 (S)-cEt gapmer, chemistry not fully specified) [ISIS 549148, reference compound]
Percent inhibition of PSA expression (PSA mRNA [1]; CSS + DHT medium, 0.04 μM): 0%
Percent inhibition of PSA expression (PSA mRNA [1]; CSS + DHT medium, 0.2 μM): 0%
Percent inhibition of PSA expression (PSA mRNA [1]; CSS + DHT medium, 1 μM): 0%
Percent inhibition of PSA expression (PSA mRNA [1]; CSS + DHT medium, 5.0 μM): 0%
Percent inhibition of PSA expression (PSA mRNA [1]; complete medium, 0.04 μM): 3%
Percent inhibition of PSA expression (PSA mRNA [1]; complete medium, 0.2 μM): 11%
Percent inhibition of PSA expression (PSA mRNA [1]; complete medium, 1 μM): 18%
Percent inhibition of PSA expression (PSA mRNA [1]; complete medium, 5.0 μM): 14%
Apoptosis (% untreated control) (VCaP cells [2]; 1.34 nM): 131 % untreated control
Apoptosis (% untreated control) (VCaP cells [2]; 4.0 nM): 108 % untreated control
Apoptosis (% untreated control) (VCaP cells [2]; 13.4 nM): 103 % untreated control
Apoptosis (% untreated control) (VCaP cells [2]; 40 nM): 146 % untreated control
Percent expression of AR (AR mRNA; 0.04 μM): 101%
Percent expression of AR (AR mRNA; 0.2 μM): 101%
Percent expression of AR (AR mRNA; 1 μM): 118%
Percent expression of AR in C4-2 cells cultured in complete medium (AR mRNA; 0.04 μM): 89%
Percent expression of AR in C4-2 cells cultured in complete medium (AR mRNA; 0.2 μM): 90%
Percent expression of AR in C4-2 cells cultured in complete medium (AR mRNA; 1 μM): 84%
Percent expression of AR in C4-2 cells cultured in complete medium (AR mRNA; 5.0 μM): 86%
Proliferation (% untreated control) (VCaP cells [3]; CSS + DHT medium, 1.34 nM): 114 % untreated control
Proliferation (% untreated control) (VCaP cells [3]; CSS + DHT medium, 4.0 nM): 123 % untreated control
Proliferation (% untreated control) (VCaP cells [3]; CSS + DHT medium, 13.4 nM): 104 % untreated control
Proliferation (% untreated control) (VCaP cells [3]; CSS + DHT medium, 40 nM): 92 % untreated control
Proliferation (% untreated control) (VCaP cells [3]; complete medium, 1.34 nM): 98 % untreated control
Proliferation (% untreated control) (VCaP cells [3]; complete medium, 4.0 nM): 98 % untreated control
Proliferation (% untreated control) (VCaP cells [3]; complete medium, 13.4 nM): 113 % untreated control
Proliferation (% untreated control) (VCaP cells [3]; complete medium, 40 nM): 106 % untreated control
Percent inhibition of 22RV1 cell proliferation (22RV1 cells [4]; +DHT (1 nM), ASO 1.34 nM): 0%
Percent inhibition of 22RV1 cell proliferation (22RV1 cells [4]; +DHT (1 nM), ASO 4.0 nM): 0%
Percent inhibition of 22RV1 cell proliferation (22RV1 cells [4]; +DHT (1 nM), ASO 13.4 nM): 3%
Percent inhibition of 22RV1 cell proliferation (22RV1 cells [4]; +DHT (1 nM), ASO 40.0 nM): 0%
Percent inhibition of 22RV1 cell proliferation (22RV1 cells [4]; −DHT, ASO 1.34 nM): 0%
Percent inhibition of 22RV1 cell proliferation (22RV1 cells [4]; −DHT, ASO 4.0 nM): 0%
Percent inhibition of 22RV1 cell proliferation (22RV1 cells [4]; −DHT, ASO 13.4 nM): 4%
Percent inhibition of 22RV1 cell proliferation (22RV1 cells [4]; −DHT, ASO 40.0 nM): 0%
Proliferation (% untreated control) (22RV1 cells [5]; 1.34 nM): 97 % untreated control
Proliferation (% untreated control) (22RV1 cells [5]; 4.0 nM): 97 % untreated control
Proliferation (% untreated control) (22RV1 cells [5]; 13.4 nM): 101 % untreated control
Proliferation (% untreated control) (22RV1 cells [5]; 40 nM): 83 % untreated control
Percent inhibition of PSA expression (PSA mRNA [6]; CSS + DHT medium, 1.34 nM): 8%
Percent inhibition of PSA expression (PSA mRNA [6]; CSS + DHT medium, 4.0 nM): 23%
Percent inhibition of PSA expression (PSA mRNA [6]; CSS + DHT medium, 13.4 nM): 29%
Percent inhibition of PSA expression (PSA mRNA [6]; complete medium, 1.34 nM): 9%
Percent inhibition of PSA expression (PSA mRNA [6]; complete medium, 4.0 nM): 11%
Percent inhibition of PSA expression (PSA mRNA [6]; complete medium, 13.4 nM): 17%
Percent inhibition of PSA expression (PSA mRNA [6]; complete medium, 40 nM): 27%
